From ChEMBL document CHEMBL1201862, “PubChem BioAssay data set” (2004)
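Cells were grown in 96-well plates and exposed to each compound for 48 hours at five concentrations; endpoints were interpolated linearly between bracketing concentrations, or set to the highest concentration if not reached. GI50 marks 50% less growth.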 Activity calls are given as the source filed them. Cut-off read from the data, not from the text of the source: active = GI50 up to about 1.1 µM and inactive = higher.

Assays:
Assay in all cases: NCI-60 cell line screen, 48 h
DLD-1 = system: DLD-1
DMS-114 = system: DMS-114
DMS-273 = system: DMS-273
HOP-18 = system: HOP-18
KM-20L2 = system: KM-20L2
M19-MEL = system: M19-MEL
RXF 631 = system: RXF 631
SNB-78 = system: SNB-78
XF498 = system: XF498

Row | SMILES | GI50 (DLD-1) | GI50 (DMS-114) | GI50 (DMS-273) | GI50 (HOP-18) | GI50 (KM-20L2) | GI50 (M19-MEL) | GI50 (RXF 631) | GI50 (SNB-78) | GI50 (XF498)
1 | CC(=O)NC1COC(COC(=O)CCCCCCCCCCNC(=O)c2ccc([N+](=O)[O-])c3c(=O)c4ccccc4[nH]c23)C(O)C1OC(C)C(=O)NC(C(=O)NC(CCC(N)=O)C(=O)OCc1ccccc1)C(C)C (stereo unspecified) | 3.21 µM (inactive) | 15.4 µM (inactive) | 8.69 µM (inactive) | 16.8 µM (inactive) | 16.3 µM (inactive) | 3.27 µM (inactive) | 27.7 µM (inactive) | 10.2 µM (inactive) | 5.41 µM (inactive)
2 | Cc1cccc(/N=C2\NC(=O)C(CC(=O)Nc3ccc(C)cc3C)S2)c1 (stereo unspecified) | > 100 µM (inactive) | 49.8 µM (inactive) | > 100 µM (inactive) | – | 97.7 µM (inactive) | > 100 µM (inactive) | – | > 100 µM (inactive) | 53.1 µM (inactive)
3 | Cn1cnc([N+](=O)[O-])c1Sc1nccc(O)n1 | > 100 µM (inactive) | > 100 µM (inactive) | > 100 µM (inactive) | > 100 µM (inactive) | – | > 100 µM (inactive) | > 100 µM (inactive) | > 100 µM (inactive) | > 100 µM (inactive)
4 | CC(=O)OCC1OC(Nc2nc(O)n(C)c(=O)c2-c2csc(N)n2)C(OC(C)=O)C(OC(C)=O)C1OC(C)=O (stereo unspecified) | > 100 µM (inactive) | > 100 µM (inactive) | – | 20 µM (inactive) | > 100 µM (inactive) | > 100 µM (inactive) | > 100 µM (inactive) | > 100 µM (inactive) | –
5 | O=c1c2ccccc2sc2nc(O)nn12 | > 100 µM (inactive) | – | > 100 µM (inactive) | > 100 µM (inactive) | > 100 µM (inactive) | > 100 µM (inactive) | > 100 µM (inactive) | > 100 µM (inactive) | > 100 µM (inactive)
6 | Cc1cccc2c1C(=O)OC2(c1cccc2ccccc12)c1cccc2ccccc12 | > 100 µM (inactive) | 40.7 µM (inactive) | > 100 µM (inactive) | 52.6 µM (inactive) | > 100 µM (inactive) | > 100 µM (inactive) | 11.3 µM (inactive) | – | –
7 | CCN(CC)C(=S)SS(C)(=O)=O | 18 µM (inactive) | – | 20.3 µM (inactive) | 38.2 µM (inactive) | – | 16.4 µM (inactive) | – | 23.7 µM (inactive) | –
8 | Cc1c2ccc3ccccc3c2c[n+]2ccccc12 | 24 µM (inactive) | 4.35 µM (inactive) | 16.2 µM (inactive) | – | 19.7 µM (inactive) | 4.48 µM (inactive) | – | 28.8 µM (inactive) | –
9 | CC(=O)OC(CCC1(C)OC1COc1ccc(CCNC(=O)C=C(C)C)cc1)C(C)(C)OC(C)=O (stereo unspecified) | – | 0.19 µM (active) | 22.5 µM (inactive) | > 100 µM (inactive) | 62.1 µM (inactive) | 19.7 µM (inactive) | – | 24.5 µM (inactive) | 23.2 µM (inactive)
10 | C/C(=C1/N=C(c2cc([N+](=O)[O-])ccc2Cl)N(C2=CC=C(Cl)CC2)C1=O)c1cc2ccccc2oc1=O | 20 µM (inactive) | 19.3 µM (inactive) | – | 21.2 µM (inactive) | 18.7 µM (inactive) | 45.5 µM (inactive) | 56 µM (inactive) | 47.9 µM (inactive) | –
